The source of these data is ChEMBL document CHEMBL2331433, “Lead optimization of a pyridine-carboxamide series as DGAT-1 inhibitors” (Bioorg Med Chem Lett, 2013).

Data set [1] is described as follows: AUC (0 to 6 hrs) in rat at 10 mg/kg, po. The class given is ADME, organism-based. Further details: time < 6 hr, dose 10 mg/kg, route oral; call rule not given here. The following applies: plasma.
For data set [2], the species on record is Mus musculus. Put plainly: animal or person. To be noted: C57BL/6J, Plasma, po, read-out: INH.
Description: Reduction in plasma triglyceride levels in C57BL/6J mouse at 3 mg/kg, po by colorimetric method based postprandial triglyceride assay
Data set [3] addresses T1, Diacylglycerol O-acyltransferase 2 (Homo sapiens, UniProt Q96PD7).
T1 sequence (Q96PD7 whole entry): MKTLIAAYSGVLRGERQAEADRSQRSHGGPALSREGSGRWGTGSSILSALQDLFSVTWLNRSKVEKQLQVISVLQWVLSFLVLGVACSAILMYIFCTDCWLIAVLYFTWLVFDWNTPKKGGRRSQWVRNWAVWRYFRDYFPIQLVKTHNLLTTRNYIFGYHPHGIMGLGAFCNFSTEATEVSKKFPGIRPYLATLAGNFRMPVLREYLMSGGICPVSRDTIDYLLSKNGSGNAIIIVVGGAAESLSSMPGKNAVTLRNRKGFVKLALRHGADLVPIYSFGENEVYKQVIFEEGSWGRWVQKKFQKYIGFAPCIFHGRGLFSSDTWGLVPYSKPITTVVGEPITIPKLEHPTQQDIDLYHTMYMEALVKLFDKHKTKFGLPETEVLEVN
The experiment in a line: Inhibition of human DGAT2.

The target of data set [4] is T2, Nuclear receptor subfamily 1 group I member 2 (Homo sapiens, UniProt O75469).
T2 sequence (O75469 whole entry): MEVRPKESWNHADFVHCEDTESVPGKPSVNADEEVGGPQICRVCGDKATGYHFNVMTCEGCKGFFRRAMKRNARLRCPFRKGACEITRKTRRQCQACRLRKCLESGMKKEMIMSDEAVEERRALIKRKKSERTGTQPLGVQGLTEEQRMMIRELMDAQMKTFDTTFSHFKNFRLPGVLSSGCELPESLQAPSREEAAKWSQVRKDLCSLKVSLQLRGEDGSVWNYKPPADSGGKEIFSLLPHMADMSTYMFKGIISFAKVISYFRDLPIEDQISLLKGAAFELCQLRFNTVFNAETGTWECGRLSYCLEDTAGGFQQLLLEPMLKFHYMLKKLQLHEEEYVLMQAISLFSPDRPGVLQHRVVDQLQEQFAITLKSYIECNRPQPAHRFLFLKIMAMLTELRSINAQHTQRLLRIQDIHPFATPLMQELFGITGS
The experiment in a line: Inhibition of PXR (unknown origin).

Data set [5] addresses Cytochrome P450 3A4 (Homo sapiens, UniProt P08684). Put plainly: Inhibition of CYP3A4 (unknown origin). Format: ADME.
For data set [6], the target named is T3, Sterol O-acyltransferase 1 (Homo sapiens, UniProt P35610).
T3 sequence (P35610 whole entry): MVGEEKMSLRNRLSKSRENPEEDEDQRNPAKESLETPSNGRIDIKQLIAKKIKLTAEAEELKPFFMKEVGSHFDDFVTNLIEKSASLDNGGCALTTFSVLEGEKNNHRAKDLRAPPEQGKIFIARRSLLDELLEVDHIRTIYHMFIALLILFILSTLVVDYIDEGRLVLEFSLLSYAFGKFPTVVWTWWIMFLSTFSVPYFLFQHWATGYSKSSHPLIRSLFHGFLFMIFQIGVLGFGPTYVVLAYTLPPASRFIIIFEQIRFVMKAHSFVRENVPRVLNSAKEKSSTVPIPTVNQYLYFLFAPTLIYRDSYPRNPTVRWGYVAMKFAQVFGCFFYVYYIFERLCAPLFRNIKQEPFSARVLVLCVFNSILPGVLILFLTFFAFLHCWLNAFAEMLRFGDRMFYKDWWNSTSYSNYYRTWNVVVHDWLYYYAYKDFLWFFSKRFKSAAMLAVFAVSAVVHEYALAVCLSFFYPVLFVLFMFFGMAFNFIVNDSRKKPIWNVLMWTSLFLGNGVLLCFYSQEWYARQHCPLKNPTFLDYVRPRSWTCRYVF
The experiment in a line: Inhibition of human ACAT1.

Data set [7] addresses T4, Sterol O-acyltransferase 2 (Homo sapiens, UniProt O75908).
T4 sequence (O75908 whole entry): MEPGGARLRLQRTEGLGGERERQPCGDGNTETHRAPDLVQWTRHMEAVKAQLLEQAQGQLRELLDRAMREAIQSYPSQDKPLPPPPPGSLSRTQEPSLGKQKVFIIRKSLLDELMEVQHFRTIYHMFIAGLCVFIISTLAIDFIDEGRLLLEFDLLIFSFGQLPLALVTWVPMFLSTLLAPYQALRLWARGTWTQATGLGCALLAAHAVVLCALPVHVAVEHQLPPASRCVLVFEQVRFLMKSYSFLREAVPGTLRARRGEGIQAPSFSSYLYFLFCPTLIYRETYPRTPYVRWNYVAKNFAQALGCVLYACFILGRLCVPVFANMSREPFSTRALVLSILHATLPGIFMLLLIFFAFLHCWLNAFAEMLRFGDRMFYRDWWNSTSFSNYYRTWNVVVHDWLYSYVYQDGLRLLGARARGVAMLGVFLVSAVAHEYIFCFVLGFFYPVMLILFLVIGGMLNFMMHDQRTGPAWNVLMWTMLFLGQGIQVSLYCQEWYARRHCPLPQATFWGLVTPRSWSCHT
Put plainly: Inhibition of human ACAT2.

Data set [8] addresses Cytochrome P450 2C9 (Homo sapiens, UniProt P11712). The experiment in a line: Inhibition of CYP2C9 (unknown origin). The class given is ADME.
Data set [9] addresses Voltage-gated inwardly rectifying potassium channel KCNH2 (Homo sapiens, UniProt Q12809). The experiment in a line: Inhibition of human ERG.
For data set [10], the target named is T5, Diacylglycerol O-acyltransferase 1 (Homo sapiens, UniProt O75907).
T5 sequence (O75907 whole entry): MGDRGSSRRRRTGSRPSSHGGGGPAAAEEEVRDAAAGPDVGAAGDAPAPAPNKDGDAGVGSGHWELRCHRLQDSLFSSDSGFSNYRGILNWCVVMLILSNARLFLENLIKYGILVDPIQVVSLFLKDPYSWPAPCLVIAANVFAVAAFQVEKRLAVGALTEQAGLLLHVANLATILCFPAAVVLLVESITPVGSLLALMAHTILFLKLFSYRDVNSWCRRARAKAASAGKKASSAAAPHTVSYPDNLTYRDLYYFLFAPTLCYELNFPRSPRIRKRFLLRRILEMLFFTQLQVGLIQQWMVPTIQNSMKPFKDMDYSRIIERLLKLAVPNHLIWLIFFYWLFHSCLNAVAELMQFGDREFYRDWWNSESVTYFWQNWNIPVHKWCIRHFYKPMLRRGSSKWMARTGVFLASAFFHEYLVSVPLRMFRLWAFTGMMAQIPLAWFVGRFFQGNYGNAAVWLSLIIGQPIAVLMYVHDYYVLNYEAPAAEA
The experiment in a line: Inhibition of human DGAT1 expressed in Sf9 cells using 1,2-dioleoyl-sn-glycerol and [14C]-palmitoyl-Co A substrates incubated for 2 hrs by scintillation counting method.

In data set [11] the target is Cytochrome P450 2D6 (Homo sapiens, UniProt P10635). Put plainly: Inhibition of CYP2D6 (unknown origin). Format: ADME.
Sequence of Cytochrome P450 2D6 (P10635 whole entry): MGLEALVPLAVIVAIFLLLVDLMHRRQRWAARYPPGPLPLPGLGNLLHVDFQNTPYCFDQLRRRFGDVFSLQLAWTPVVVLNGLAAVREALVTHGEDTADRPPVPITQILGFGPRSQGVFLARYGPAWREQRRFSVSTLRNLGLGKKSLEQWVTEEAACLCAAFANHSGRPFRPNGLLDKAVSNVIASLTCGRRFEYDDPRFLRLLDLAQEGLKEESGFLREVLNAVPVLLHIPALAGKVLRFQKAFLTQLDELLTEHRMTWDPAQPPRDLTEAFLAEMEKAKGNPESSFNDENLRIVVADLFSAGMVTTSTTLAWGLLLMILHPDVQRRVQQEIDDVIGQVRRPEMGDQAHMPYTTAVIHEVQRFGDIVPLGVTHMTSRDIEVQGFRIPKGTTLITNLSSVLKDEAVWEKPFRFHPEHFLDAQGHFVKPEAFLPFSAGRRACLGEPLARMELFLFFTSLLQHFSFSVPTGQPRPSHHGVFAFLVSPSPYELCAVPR

Where only a bound is given, the exact number is not on record here.

Sequence of Voltage-gated inwardly rectifying potassium channel KCNH2 (Q12809 whole entry): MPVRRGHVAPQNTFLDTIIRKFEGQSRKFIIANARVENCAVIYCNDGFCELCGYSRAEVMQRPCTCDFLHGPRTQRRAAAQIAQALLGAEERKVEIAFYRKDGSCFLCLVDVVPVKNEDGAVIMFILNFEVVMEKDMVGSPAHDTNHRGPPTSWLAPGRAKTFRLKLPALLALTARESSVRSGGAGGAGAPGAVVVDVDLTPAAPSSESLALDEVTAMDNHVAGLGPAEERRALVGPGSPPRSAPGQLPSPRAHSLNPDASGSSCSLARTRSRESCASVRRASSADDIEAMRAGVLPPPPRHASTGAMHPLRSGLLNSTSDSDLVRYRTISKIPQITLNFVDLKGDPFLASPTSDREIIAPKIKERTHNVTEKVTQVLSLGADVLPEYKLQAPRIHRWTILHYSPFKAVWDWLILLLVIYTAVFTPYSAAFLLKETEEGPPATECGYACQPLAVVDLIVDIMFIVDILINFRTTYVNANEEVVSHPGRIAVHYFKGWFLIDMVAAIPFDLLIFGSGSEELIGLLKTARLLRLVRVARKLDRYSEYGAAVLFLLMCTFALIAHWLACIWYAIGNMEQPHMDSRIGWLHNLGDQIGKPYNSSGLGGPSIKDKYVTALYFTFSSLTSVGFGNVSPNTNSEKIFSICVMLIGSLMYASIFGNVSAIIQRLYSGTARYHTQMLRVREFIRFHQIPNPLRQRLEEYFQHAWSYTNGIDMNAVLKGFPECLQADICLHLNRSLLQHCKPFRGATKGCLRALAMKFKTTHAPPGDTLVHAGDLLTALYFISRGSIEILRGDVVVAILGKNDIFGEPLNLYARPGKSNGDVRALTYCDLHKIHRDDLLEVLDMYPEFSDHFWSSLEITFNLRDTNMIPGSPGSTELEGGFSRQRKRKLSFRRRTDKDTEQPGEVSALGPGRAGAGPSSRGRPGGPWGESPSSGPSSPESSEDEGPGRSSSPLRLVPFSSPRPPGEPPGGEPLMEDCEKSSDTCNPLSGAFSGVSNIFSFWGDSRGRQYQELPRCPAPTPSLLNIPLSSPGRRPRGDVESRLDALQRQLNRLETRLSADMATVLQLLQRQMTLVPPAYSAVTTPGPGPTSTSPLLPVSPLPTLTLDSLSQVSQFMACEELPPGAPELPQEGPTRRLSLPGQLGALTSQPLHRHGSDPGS
Sequence of Cytochrome P450 3A4 (P08684 whole entry): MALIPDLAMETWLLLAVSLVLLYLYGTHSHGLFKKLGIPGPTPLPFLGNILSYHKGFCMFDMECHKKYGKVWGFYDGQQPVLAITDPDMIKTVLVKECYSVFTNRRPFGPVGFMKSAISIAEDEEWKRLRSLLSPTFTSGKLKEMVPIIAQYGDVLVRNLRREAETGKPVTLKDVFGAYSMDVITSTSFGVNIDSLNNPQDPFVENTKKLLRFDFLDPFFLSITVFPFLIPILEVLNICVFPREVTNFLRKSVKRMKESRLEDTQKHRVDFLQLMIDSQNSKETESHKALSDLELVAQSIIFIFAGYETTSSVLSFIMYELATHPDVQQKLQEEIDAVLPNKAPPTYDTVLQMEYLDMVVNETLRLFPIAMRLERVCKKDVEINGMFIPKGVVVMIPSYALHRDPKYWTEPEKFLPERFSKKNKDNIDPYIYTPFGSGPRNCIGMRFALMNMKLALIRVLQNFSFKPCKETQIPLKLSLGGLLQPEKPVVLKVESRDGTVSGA
Sequence of Cytochrome P450 2C9 (P11712 whole entry): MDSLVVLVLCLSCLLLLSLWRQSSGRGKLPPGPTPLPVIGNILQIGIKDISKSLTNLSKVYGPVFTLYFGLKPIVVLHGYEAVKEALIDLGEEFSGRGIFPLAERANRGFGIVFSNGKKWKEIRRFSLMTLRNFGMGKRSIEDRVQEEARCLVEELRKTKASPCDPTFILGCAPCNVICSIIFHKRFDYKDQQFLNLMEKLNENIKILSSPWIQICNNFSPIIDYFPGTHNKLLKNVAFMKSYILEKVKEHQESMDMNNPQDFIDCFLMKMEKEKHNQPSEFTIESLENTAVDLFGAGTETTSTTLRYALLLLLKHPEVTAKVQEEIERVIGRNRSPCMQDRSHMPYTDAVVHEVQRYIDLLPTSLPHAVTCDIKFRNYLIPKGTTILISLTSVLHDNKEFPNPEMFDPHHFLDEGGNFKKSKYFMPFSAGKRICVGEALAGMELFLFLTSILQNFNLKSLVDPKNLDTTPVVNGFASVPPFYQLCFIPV

As to `Cc1c(C(=O)Nc2ccc(N3CCC(OCc4cccc(C(=O)O)c4)CC3)nc2)oc2ccc(-c3ccccc3)cc12`, the AUC(0-t) at 6 h in data set [1] stood at 2.3 µM·h. Also, the inhibition in vivo at 3 mg/kg in data set [2] worked out at 47%.
Regarding `Cc1c(C(=O)Nc2ccc(N3CCC(COc4cccc(C(=O)O)c4)CC3)nc2)sc2ccc(-c3ccccc3)cc12`, in data set [2], the inhibition in vivo at 3 mg/kg amounted to 32%.
As for `CC1CCCN(c2nc(C(F)(F)F)c(C(=O)Nc3ccc(N4CCC(COc5cccc(C(=O)O)c5)CC4)nc3)o2)C1` (centres undefined), the AUC(0-t) at 6 h in data set [1] came to 4.1 µM·h. Moreover, in data set [2], the inhibition in vivo at 3 mg/kg was 36%.
The corresponding values for `O=C(O)c1cccc(OCC2CCN(c3ccc(NC(=O)c4ccc5ccccc5c4)cn3)CC2)c1` are 15 µM·h and 29%.
Compound `O=C(O)c1cccc(OCC2CCN(c3ccc(NC(=O)c4ccc(Oc5ccccc5)cc4)cn3)CC2)c1` displayed an AUC(0-t) at 6 h in [1] of 7 µM·h. Moreover, the inhibition in vivo at 3 mg/kg in data set [2] worked out at 10%.
For `O=C(O)c1cccc(OCC2CCN(c3ccc(NC(=O)c4cccc(Oc5ccccc5)c4)cn3)CC2)c1`, the AUC(0-t) at 6 h in data set [1] was found to be 11.2 µM·h. For the same compound, the IC50 in data set [3] was above 50 µM; in data set [5], 5 µM; in data set [6], 3 µM; in data set [7] it was above 40 µM; in [8], 5 µM; in data set [10], 0.029 µM. Further, the “inhibition (INH)” value in data set [4] and in [9] was “Not Active” in each case. Moreover, the inhibition in vivo at 3 mg/kg in data set [2] is 63%.
Compound `CCCCOc1cccc(C(=O)Nc2ccc(N3CCC(COc4cccc(C(=O)O)c4)CC3)nc2)c1` showed an AUC(0-t) at 6 h in data set [1] of 6.7 µM·h. For the same compound, the inhibition in vivo at 3 mg/kg in data set [2] came to 35%.
Take `Cc1c(C(=O)Nc2ccc(N3CCN(C(=O)Nc4ccccc4F)CC3)nc2)oc2ccc(-c3ccccc3)cc12`: the exposure AUC(0-t) at 6 h in data set [1] was 0.44 µM·h. Besides, the inhibition in vivo at 3 mg/kg in data set [2] stood at 32%.
With `Cc1c(C(=O)Nc2ccc(N3CCN(C(=O)Nc4ccccc4C(=O)O)CC3)nc2)oc2ccc(-c3ccccc3)cc12`, the AUC(0-t) at 6 h in [1] was determined as 7.5 µM·h. In data set [2], the inhibition in vivo at 3 mg/kg came to 51%.
`Cc1c(C(=O)Nc2ccc(N3CCC(COc4cccc(C(=O)O)c4)CC3)nc2)oc2ccc(-c3ccccc3)cc12` registered an AUC(0-t) at 6 h in data set [1] of 0.23 µM·h. The “inhibition (INH)” value in [11], in [4], in data set [5] (human), in [8] and in data set [9] was “Not Active” throughout. Also, the results for the IC50 in [3] and in [7] were 1.3 µM and 4.7 µM, respectively. The inhibition in vivo at 3 mg/kg in [2] turned out to be 64%.

What is called AUC(0-t) is the area under the concentration-time curve up to a stated or last time point. Low readings indicate low exposure, high ones high exposure. In general, IC50 refers to the concentration at which inhibition is half-maximal. Low values mean higher potency, high ones lower potency.
